From patent publication US8613927B2, “High affinity human antibodies to human nerve growth factor” (Regeneron Pharmaceuticals, Inc., priority 2007, dated 2013)

Experiments:
[1] = system: transgenic mice of which the endogenous mouse NGF locus was replaced with the human NGF gene; assay: Seltzer neuropathic pain model in mice with human NGF gene, Hargreaves' test; format: in vivo; settings: 50 mg/kg s.c. at day 8 post-surgery; p<0.05
Procedure: These mice were used in a Seltzer neuropathic pain model to test REGN268 and control mAbs. Following the Seltzer surgery, these mice were tested at day 4 and at day 8 post-surgery to confirm that the thermal hyperalgesia had developed.

[2] = system: NT-3 levels in sera of naïve C57BL/6 mice; assay: Serum NT-3 sandwich ELISA, naive mice; format: in vivo, mouse; settings: 50 mg/kg s.c.
From the text: The limit of detection (˜40 pg/ml) was defined as two standard deviations (2σ) above background with a minimum of five NT-3 standards to define the response to concentration curve.

[3] = target: T1, NT-3 signaling through p75 and TrkA in PC12 cell line (Homo sapiens, UniProt P20783); assay: PC12 SRE-luciferase assay with 75 nM NT-3 instead of NGF; format: cell-based; settings: read-out: IC50, blocking of NT-3 signaling
T1 construct: host or cells: NT-3 added exogenously; receptors endogenous in PC12 cells
T1 sequence (P20783 139-257): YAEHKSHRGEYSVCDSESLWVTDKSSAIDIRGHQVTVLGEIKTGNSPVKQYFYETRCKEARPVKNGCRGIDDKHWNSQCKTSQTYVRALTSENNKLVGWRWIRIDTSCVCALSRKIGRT
Procedure: The ability of NGF antibodies to block NGF signaling p75 and TrkA receptor-mediated activity was also measured in vitro using a rat adrenal medulla cell line, PC12, which express both receptors endogenously (Urdiales et al. 1998 J. Neuroscience 18(17):6767-6775). Briefly, PC12 cells were stably transfected with a reporter plasmid containing a serum response element (SRE) linked to a luciferase gene. The transfected cells were resuspended at approximately 2.5×10^5 cells per ml and plated at 50,000 cells per well in a 96-well tissue culture plate in Opti-MEM media overnight. The purified antibody proteins were serially diluted in medium (DMEM plus 0.1% BSA) and added to the plated cells at concentrations ranging from 0 to 100 nM. […] Luciferase activity was measured after incubating the cells for 6 hours at 37° C. in a humidified 7.5% CO2 incubator using BRIGHT GLOW™ luciferase assay system (Promega). Control mAb=RN624.

C57BL/6 mice [4] = assay: Post-operative incision pain model, thermal hyperalgesia in Hargreaves' test; format: in vivo, mouse; settings: for mean percent change from Hargreaves baseline: Table 14; for Hargreaves' test result (thermal hyperalgesia): Table 16
Procedure: Post-operative incision pain model. […] For the plantar incision surgery, C57BL/6 mice under isoflurane received an incision through skin, fascia and then isolating the underlying flexor muscle and bisecting vertically. After suture and recovery, the mice were tested for thermal hyperalgesia in the Hargreaves' test and for guarding behavior in the weight bearing test (model 600, IITC Life Science) for 5 days.
Thermal hyperalgesia was studied in the Hargreaves' test and mechanical allodynia was tested in the von Frey test. In this latter test, mice were tested after being acclimated for 2-3 hours for 4 days in an apparatus with a wire mesh floor. The test was performed by applying, in ascending order, a series of von Frey hairs through the wire mesh onto the plantar surface of the hind paw with the incision. A response was considered positive if the paw was raised from the platform in response to application of the filament. Starting from the thinnest hair, each von Frey filament was applied up to five times until a response was observed.

[5] = target: Human NGF binding to human p75-hFc (Homo sapiens, UniProt P01138, DEL136-138/DEL208-209); assay: BIACORE receptor blocking assay, free NGF bound to p75-hFc; settings: percentage free NGF bound; NGF 10-25 nM with molar excess of antibody; NGF alone = 100%
Human NGF binding to human p75-hFc, sequence (P01138 with tags, fused parts or gaps DEL136-138/DEL208-209): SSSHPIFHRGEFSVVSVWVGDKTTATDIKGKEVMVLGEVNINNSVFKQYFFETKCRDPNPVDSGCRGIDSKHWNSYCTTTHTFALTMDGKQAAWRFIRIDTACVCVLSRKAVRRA
From the text: To identify blocking antibodies, a receptor blocking assay was designed using a BIACORE™ 3000 instrument. Recombinant human TrkA-hFc and human p75-hFc proteins were amine-coupled to a CM5 chip to a density of about 5000-6000 RU.

C57BL/6 mice [6] = assay: Post-operative incision pain model, weight bearing test; format: in vivo, mouse; settings: for mean percent weight distribution on affected limb: Table 15
Procedure: Post-operative incision pain model. A rodent model of post-operative pain in which a hind paw plantar incision causes increased sensitivity to touch, guarding behavior, and thermal hyperalgesia, was used to study the efficacy of anti-NGF antibody therapy. For the plantar incision surgery, C57BL/6 mice under isoflurane received an incision through skin, fascia and then isolating the underlying flexor muscle and bisecting vertically. After suture and recovery, the mice were tested for thermal hyperalgesia in the Hargreaves' test and for guarding behavior in the weight bearing test (model 600, IITC Life Science) for 5 days.

[7] = target: T2, Human NGF (MG87 cells stably transfected with human TrkA receptor) (Homo sapiens, UniProt P01138, DEL136-138/DEL208-209); assay: NGF-dependent, TrkA receptor-mediated cell growth of MG87 cells (CCK8); format: cell-based; settings: 373 pM human NGF; 3 days
T2 construct: host or cells: NGF added exogenously; partner TrkA made by stably transfected MG87 cells
T2 sequence (P01138 with tags, fused parts or gaps DEL136-138/DEL208-209): as above
Procedure: The ability of NGF antibodies to block NGF-dependent and TrkA receptor-mediated cell growth activity was carried out using MG87 cells stably transfected with a plasmid encoding human TrkA receptor. Briefly, the transfected cells were trypsinized and resuspended at approximately 2.5×10^5 cells per ml and plated at 5,000 cells per well in a 96-well tissue culture plate. The purified antibody proteins were serially diluted in defined medium plus 0.1% BSA and added to the plated cells at concentrations ranging from 0 to 500 nM. Human NGF was added to the wells to a final concentration of 373 pM. The response was measured after incubating the cells for 3 days at 37° C. in a humidified 5% CO2 incubator. Cell growth activity was measured with a CCK8 kit (Dojindo) and OD450nm recorded. The dependency of the signals on the concentrations of antibody was analyzed and IC50 values reported (Table 10, column 2).

[8] = 10 mg/kg s.c. 1 hr prior to incision, p<0.001-0.05

Substance: IgG1 Control: negative binding control, IgG1 control (AVASTIN®; Genentech, CA)
- relief of neuropathic pain in humanized NGF mice [1]: had no effect

Substance: tanezumab [RN624]
- Serum NT-3 ([2]; Day 1, limit of detection ~40 pg/ml): 131 ± 41 pg/mL
- Serum NT-3 ([2]; Day 7): 199 ± 15 pg/mL
- Serum NT-3 ([2]; Day 14): 196 ± 35 pg/mL
- NT-3 levels ([2]; over 1, 7 and 14 days post treatment): 131 to 199 pg/mL
- IC50 [3]: ~0.105 µM
- reduction of post-operative pain vs vehicle, Hargreaves' test (C57BL/6 mice [4]; [8]): significantly reduced the post-operative pain
- reversal of thermal hyperalgesia (C57BL/6 mice [4]; 25 mg/kg i.p. on day 1 post-surgery, by 72 hours, p<0.001-0.01): return to baseline was not observed
- mean percent change from Hargreaves baseline (C57BL/6 mice [4]; 10 mg/kg s.c. 1 hr prior to incision, Baseline, ±SEM): 0.00 ± 0.0%
- mean percent change from Hargreaves baseline (C57BL/6 mice [4]; 10 mg/kg s.c. pre-incision, Day 1 after surgery): −62.5 ± 10.6%
- mean percent change from Hargreaves baseline (C57BL/6 mice [4]; 10 mg/kg s.c. pre-incision, Day 2 after surgery): −55.2 ± 9.4%
- mean percent change from Hargreaves baseline (C57BL/6 mice [4]; 10 mg/kg s.c. pre-incision, Day 3 after surgery): −5.3 ± 12.1%
- mean percent change from Hargreaves baseline (C57BL/6 mice [4]; 10 mg/kg s.c. pre-incision, Day 4 after surgery): −6.4 ± 8.7%
- mean percent change from Hargreaves baseline (C57BL/6 mice [4]; 10 mg/kg s.c. pre-incision, Day 5 after surgery): −5.3 ± 5.6%
- Hargreaves' test result (thermal hyperalgesia) (C57BL/6 mice [4]; 25 mg/kg i.p. on day 1 post-surgery, Baseline): 0.0 ± 0.0
- Hargreaves' test result (thermal hyperalgesia) (C57BL/6 mice [4]; 25 mg/kg i.p., 6 hr after treatment): −68.1 ± 5.2
- Hargreaves' test result (thermal hyperalgesia) (C57BL/6 mice [4]; 25 mg/kg i.p., 23 hr after treatment): −40.5 ± 8.9
- Hargreaves' test result (thermal hyperalgesia) (C57BL/6 mice [4]; 25 mg/kg i.p., 47 hr after treatment): −37.6 ± 7.2
- Hargreaves' test result (thermal hyperalgesia) (C57BL/6 mice [4]; 25 mg/kg i.p., 72 hr after treatment): −47.2 ± 8.0
- Hargreaves' test result (thermal hyperalgesia) (C57BL/6 mice [4]; 25 mg/kg i.p., Day 1 (post-surgery, before injection)): −74.7 ± 4.3
- % Binding p75-hFc [5]: 16%
- reduction of post-operative pain vs vehicle, weight bearing test (C57BL/6 mice [6]; [8]): significantly reduced the post-operative pain
- mean percent weight distribution on affected limb (C57BL/6 mice [6]; 10 mg/kg s.c. pre-incision, Day 0, ±SEM): 49.0 ± 0.5%
- mean percent weight distribution on affected limb (C57BL/6 mice [6]; 10 mg/kg, Day 1 after surgery): 44.8 ± 1.9%
- mean percent weight distribution on affected limb (C57BL/6 mice [6]; 10 mg/kg, Day 2 after surgery): 42.7 ± 1.8%
- mean percent weight distribution on affected limb (C57BL/6 mice [6]; 10 mg/kg, Day 3 after surgery): 48.7 ± 1.9%
- mean percent weight distribution on affected limb (C57BL/6 mice [6]; 10 mg/kg, Day 4 after surgery): 47.2 ± 1.2%
- mean percent weight distribution on affected limb (C57BL/6 mice [6]; 10 mg/kg, Day 5 after surgery): 49.7 ± 0.7%
- IC50 [7]: < 0.000186 µM
